From the supplement of paper PMC10627819

What was measured:
[1] = test system: B. subtilis 168; assay: Bliss interaction score (quartile over a dose matrix) (fitness difference); higher = more antagonism (negative = synergy)
Outline: (§1)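 Each OD595 reading at entry into stationary phase was scaled to the robust mean of the untreated wells on its plate, with a ceiling of 1. These ratios define fitness, and single-drug fitness was inferred from combinations. The Bliss score compares observed fitness with the product-based expectation and is reported as quartiles across all replicate types, technical, biological and donor/recipient.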

[2] = test system: S. aureus DSM 20231; assay: as above
Outline: as §1

[3] = test system: S. aureus Newman; assay: as above
Outline: as §1

[4] = test system: S. pneumoniae D39V; assay: as above
Outline: as §1

[5] = test system: B. subtilis 168; assay: fitness (endpoint OD595 vs no drug) (fraction); higher = more growth
Outline: (§2)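 At 37 °C, bacteria in TSB, LB Lennox or CY were grown in 384-well plates from a starting OD595 of 0.01. OD595 was measured every 30 min for 14 h, with the first reading used as background. Fitness is the optical density at the switch to stationary phase as a fraction of the robust mean of no-drug control wells, capped at 1.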

[6] = test system: S. aureus DSM 20231; assay: as above
Outline: as §2

[7] = test system: S. aureus Newman; assay: as above
Outline: as §2

[8] = test system: S. pneumoniae D39V; assay: as above
Outline: as §2
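Wherever Bliss interaction score (quartile over a dose matrix) is given: first quartile when negative (synergy) and third quartile when positive (antagonism).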
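Wherever fitness (endpoint OD595 vs no drug) is given: OD595 on entry to stationary phase over no-drug wells; at most 1.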

CCCCCCCCCC(=O)N[C@@H](Cc1c[nH]c2ccccc12)C(=O)N[C@H](CC(N)=O)C(=O)N[C@@H](CC(=O)O)C(=O)N[C@@H]1C(=O)NCC(=O)N[C@@H](CCCN)C(=O)N[C@@H](CC(=O)O)C(=O)N[C@H](C)C(=O)N[C@@H](CC(=O)O)C(=O)NCC(=O)N[C@H](CO)C(=O)N[C@@H]([C@H](C)CC(=O)O)C(=O)N[C@@H](CC(=O)c2ccccc2N)C(=O)O[C@@H]1C [Daptomycin] + CN[C@@H]1[C@H](O)[C@H](NC)[C@H]2O[C@@]3(O)C(=O)C[C@@H](C)O[C@H]3O[C@@H]2[C@H]1O [Spectinomycin]
Conditions	Bliss interaction score
[1]	0.0649
[2]	0.0629
[3]	0.0696
[4]	0.0673

fitness
Conditions	first compound 0.125 µg/mL	first compound 0.25 µg/mL	first compound 0.5 µg/mL	first compound 1 µg/mL	first compound 2 µg/mL	first compound 4 µg/mL
[5], partner 2 µg/mL	0.934	0.979	0.836	–	–	–
[5], partner 4 µg/mL	0.964	0.946	0.813	–	–	–
[5], partner 8 µg/mL	0.863	0.944	0.835	–	–	–
[6], partner 4 µg/mL	–	–	≥ 1	0.978	0.964	–
[6], partner 8 µg/mL	–	–	≥ 1	0.96	0.946	–
[6], partner 16 µg/mL	0.852	0.872	0.905	0.931	0.866	–
[7], partner 4 µg/mL	0.963	0.932	0.924	–	–	–
[7], partner 8 µg/mL	0.991	0.983	0.952	–	–	–
[7], partner 16 µg/mL	0.915	0.917	0.905	–	–	–
[8], partner 4 µg/mL	–	–	–	0.92	0.943	0.941
[8], partner 8 µg/mL	–	–	–	0.817	0.856	0.847
[8], partner 16 µg/mL	–	–	–	0.554	0.569	0.546

fitness, one replicate
Conditions	partner 2 µg/mL	partner 4 µg/mL	partner 8 µg/mL	partner 32 µg/mL	partner 64 µg/mL
[5], first compound 1 µg/mL	0.704	0.71	0.751	–	–
[6], first compound 0.125 µg/mL	–	0.935	0.988	0.767	0.0669
[6], first compound 0.25 µg/mL	–	0.977	0.998	0.7	0.0927
[6], first compound 0.5 µg/mL	–	–	–	0.745	0.079
[7], first compound 0.125 µg/mL	–	–	–	0.595	0.0775
[7], first compound 0.25 µg/mL	–	–	–	0.63	0.0532
[7], first compound 0.5 µg/mL	–	–	–	0.626	0.0675

CCCCCCCCCC(=O)N[C@@H](Cc1c[nH]c2ccccc12)C(=O)N[C@H](CC(N)=O)C(=O)N[C@@H](CC(=O)O)C(=O)N[C@@H]1C(=O)NCC(=O)N[C@@H](CCCN)C(=O)N[C@@H](CC(=O)O)C(=O)N[C@H](C)C(=O)N[C@@H](CC(=O)O)C(=O)NCC(=O)N[C@H](CO)C(=O)N[C@@H]([C@H](C)CC(=O)O)C(=O)N[C@@H](CC(=O)c2ccccc2N)C(=O)O[C@@H]1C [Daptomycin] + Cc1onc(-c2ccccc2)c1C(=O)N[C@@H]1C(=O)N2[C@@H]1SC(C)(C)[C@@H]2C(=O)O [Oxacillin]
Conditions	Bliss interaction score
[1]	0.0697
[2]	-0.0408
[3]	0.0785
[4]	0.0877

fitness
Conditions	first compound 0.125 µg/mL	first compound 0.25 µg/mL	first compound 0.5 µg/mL	first compound 1 µg/mL	first compound 2 µg/mL	first compound 4 µg/mL
[5], partner 0.002 µg/mL	0.979	0.99	0.938	–	–	–
[5], partner 0.004 µg/mL	0.996	0.959	0.877	–	–	–
[5], partner 0.008 µg/mL	0.899	0.921	0.856	–	–	–
[6], partner 0.0156 µg/mL	–	–	0.864	0.889	0.794	–
[6], partner 0.0312 µg/mL	–	–	0.768	0.716	0.721	–
[6], partner 0.0625 µg/mL	–	–	0.502	0.501	0.537	–
[7], partner 0.0156 µg/mL	0.863	0.82	0.785	–	–	–
[7], partner 0.0312 µg/mL	0.752	0.751	0.768	–	–	–
[7], partner 0.0625 µg/mL	0.656	0.664	0.674	–	–	–
[8], partner 0.005 µg/mL	–	–	–	≥ 1	0.999	0.949
[8], partner 0.01 µg/mL	–	–	–	0.951	0.97	0.956
[8], partner 0.02 µg/mL	–	–	–	0.904	0.908	0.895
[8], partner 0.04 µg/mL	–	–	–	0.377	0.382	0.505

fitness, one replicate
Conditions	first compound 0.125 µg/mL	first compound 0.25 µg/mL	first compound 0.5 µg/mL	first compound 1 µg/mL
[5], partner 0.0078 µg/mL	–	0.878	0.894	0.662
[5], partner 0.0155 µg/mL	–	0.975	0.87	0.657
[5], partner 0.031 µg/mL	–	0.888	0.832	0.302
[5], partner 0.075 µg/mL	0.618	0.686	0.395	–
[5], partner 0.15 µg/mL	0.0439	0.032	0.0273	–
[5], partner 0.3 µg/mL	0.0398	0.0692	0.0429	–
[6], partner 0.0156 µg/mL	0.728	0.737	–	–
[6], partner 0.0312 µg/mL	0.677	0.722	–	–
[6], partner 0.0625 µg/mL	0.531	0.515	–	–

CCCCCCCCCC(=O)N[C@@H](Cc1c[nH]c2ccccc12)C(=O)N[C@H](CC(N)=O)C(=O)N[C@@H](CC(=O)O)C(=O)N[C@@H]1C(=O)NCC(=O)N[C@@H](CCCN)C(=O)N[C@@H](CC(=O)O)C(=O)N[C@H](C)C(=O)N[C@@H](CC(=O)O)C(=O)NCC(=O)N[C@H](CO)C(=O)N[C@@H]([C@H](C)CC(=O)O)C(=O)N[C@@H](CC(=O)c2ccccc2N)C(=O)O[C@@H]1C [Daptomycin] + CN(N=O)C(=O)N[C@@H](C=O)[C@@H](O)[C@H](O)[C@H](O)CO [Streptozotocin]
Conditions	Bliss interaction score
[1]	-0.0562
[2]	0.0436
[3]	0.0468
[4]	0.0898

fitness, one replicate
Conditions	partner 0.15 µg/mL	partner 0.3 µg/mL	partner 0.6 µg/mL
[5], first compound 0.125 µg/mL	0.889	0.968	0.935
[5], first compound 1 µg/mL	0.658	0.674	0.669
[6], first compound 0.125 µg/mL	0.795	0.761	0.645
[6], first compound 0.25 µg/mL	0.883	0.764	0.656

fitness
Conditions	partner 0.15 µg/mL	partner 0.3 µg/mL	partner 0.6 µg/mL	partner 1.2 µg/mL	partner 2.4 µg/mL	partner 4.8 µg/mL
[5], first compound 0.25 µg/mL	0.89	0.914	0.969	–	–	–
[5], first compound 0.5 µg/mL	0.835	0.761	0.768	–	–	–
[6], first compound 0.5 µg/mL	0.817	0.778	0.732	–	–	–
[6], first compound 1 µg/mL	0.93	0.799	0.744	–	–	–
[6], first compound 2 µg/mL	0.871	0.818	0.748	–	–	–
[7], first compound 0.125 µg/mL	0.945	0.805	0.636	–	–	–
[7], first compound 0.25 µg/mL	0.957	0.855	0.594	–	–	–
[7], first compound 0.5 µg/mL	0.969	0.807	0.627	–	–	–
[8], first compound 1 µg/mL	–	–	–	0.94	0.939	0.918
[8], first compound 2 µg/mL	–	–	–	0.935	0.95	0.884
[8], first compound 4 µg/mL	–	–	–	0.968	0.942	0.923
